Measured values taken from US6849616B1, “Methods to potentiate intravenous estramustine phosphate” (Pharmacia Italia S.p.A., priority 1998, dated 2005).

Legend:
[1] = cited from earlier work
[2] = system: hormone refractory prostate cancer; conditions: with Taxol, cited from earlier work
[3] = system: advanced metastatic prostate cancer; experiment: Clinical cases: weekly high-dose intravenous estramustine phosphate
prostate cancer = conditions: given orally with escalating doses of docetaxel, cited from earlier work
[4] = system: hormone refractory prostate cancer; conditions: oral, combined with vinblastine, cited from earlier work
[5] = system: hormone refractory prostate cancer; conditions: oral, combined with Etoposide, cited from earlier work
tumor cell division = conditions: tissue culture (Hartley-Asp, 1984); cited from earlier work
tubulin = conditions: in vitro (Dahllof 1993); cited from earlier work
[6] = Gunnarsson, 1981, 1984; cited from earlier work
[7] = system: estramustine binding protein (EMBP); conditions: cited from earlier work
[8] = Pharmacokinetics after a single high intravenous dose of estramustine phosphate in patients; conditions: after a single high intravenous dose of estramustine phosphate at 1000 mg/m^2; FIG. 2
[9] = patients, single intravenous dose of 300 mg; previous data; cited from earlier work
[10] = 245 patients, 300-600 mg/day i.v. for 21 days then once or twice weekly for 2 months (Andersson et al)
[11] = 1000 mg/m^2 i.v. central line, 30 minute infusion, three patients
[12] = 1500 mg/m^2 i.v. central line, 30 minutes or 1 hour infusion, three patients
[13] = 2000 mg/m^2 i.v. central line, 60 minute infusion, with anti-thrombotic agent, three patients
[14] = 2500 mg/m^2 i.v. central line, 90 minute infusion, two patients

## C[C@]12CC[C@@H]3c4ccc(OC(=O)N(CCCl)CCCl)cc4CC[C@H]3[C@@H]1CC[C@@H]2OP(=O)(O)O [estramustine phosphate]
[1]; 450 mg/day i.v. (Nagel and Kölln 1977)
  toxicity at 450 mg/day intravenous: severe gastrointestinal problems
[1]; 900 mg/day i.v. for 7-10 days followed by oral therapy, 11 of 18 patients (Maier 1990)
  patients with severe liver problems: 61%
[1]; [10]
  patients exhibiting gastrointestinal problems: 17%
  patients exhibiting liver disturbances: 9%
  patients exhibiting thrombophlebitis: 20%
[2]; 6 patients
  transient hepatic enzyme elevation of grade 1-3: 35.2%
[2]; 8 patients
  edema: 47%
[2]; of six patients with measurable disease, PR of 2+, 6, and 8 months
  patients obtaining a PR: 3
[2]; seventeen patients
  Grade 3-4 granulocytopenia and mucositis: 2 patients
  median duration of response: 7 months
  nausea grade 1-2: 70.5%
  patients with PSA decreased by ≧50%: 58.8%
[3]; [11]
  PSA response: several patients demonstrating PSA response
  tolerability of infusions: well tolerated
[3]; [12]
  tolerability of infusions: well tolerated
  tumor response: one patient demonstrating a response in bulky tumor adenopathy
[3]; [13]
  PSA response: evidence of PSA response
  tolerability of infusions: well tolerated without serious toxicity
[3]; [14]
  prostate specific antigen (PSA) response: both patients demonstrated a response (reduction)
  tolerability of infusions: well tolerated without serious toxicity
Prostate cancer
  overall prostate specific antigen response rate: 62%
Prostate cancer; patients with bidimensionally measurable disease (3 patients)
  partial response in lymph nodes: 43%
[4]; 4/37
  incidence of significant cardiovascular toxicity: 10.5%
[4]; among 88 patients
  decrease in prostate specific antigen: 50-75%
[4]
  most frequent toxicity: mild to moderate nausea
[5]; 20 patients with soft tissue disease (3 patients)
  complete responses (CR): 15%
[5]; 20 patients with soft tissue disease (6 patients)
  partial responses (PR): 30%
[5]; 32 patients with bone metastases (8 patients)
  patients with bone metastases improved: 25%
[5]; 32 patients with bone metastases (12 patients)
  patients with bone metastases stable: 38%
[5]; overall, 13 men
  men with a 75% decrease in prostate specific antigen: 25%
[5]; overall, 28 men
  men with a 50% decrease in prostate specific antigen: 54%

## C[C@]12CC[C@@H]3c4ccc(OC(=O)N(CCCl)CCCl)cc4CC[C@H]3[C@@H]1CC[C@@H]2O [estramustine]
Tumor cell division
  anti-mitotic effect: dose-dependent blocking of tumor cell division in the metaphase
tubulin
  effect on assembly of microtubules composed of only tubulin: inhibited the assembly of microtubules
[6]
  yield of estradiol and estrone, respectively, by cleavage of the carbamic ester: approximately 15%
[7]
  binding affinity to EMBP-like protein: very high affinity

## C[C@]12CC[C@@H]3c4ccc(OC(=O)N(CCCl)CCCl)cc4CC[C@H]3[C@@H]1CCC2=O [estromustine]
[8]
  half life of estromustine: approximately 100 hours
[6]
  yield of estradiol and estrone, respectively, by cleavage of the carbamic ester: approximately 15%
[9]
  elimination half lives of estromustine: 10 to 20 h
[7]
  binding affinity to EMBP-like protein: very high affinity
